Patent US20260335388A1, “COMBINATION THERAPIES WITH ONCOLYTIC ADENOVIRUS AND TOPOISOMERASE I INHIBITORS OR PRODRUGS THEREOF” (priority 2022, published 2026)
Read-outs that look alike come from different tables or passages of the source.

How the values were obtained:
[1] = test system: Y79 cells; assay: Viability of Y79 cells by treatment sequence; type: cell-based
Description: To address the sequence of the treatments on cell viability and apoptosis markers, topotecan (2 μM) and VCN-01 at 50 MOI (concentration sufficient to achieve viral protein transduction at early time points) was incubated with the sequence “topotecan first” (three days before VCN-01) or “VCN-01 first” (three days before topotecan). The experiments were controlled by adding culture medium instead of the second treatment.

[2] = test system: E1a; assay: Immunoblot of E1a / E2F-1 in VCN-01-infected Y79 cells with further chemotherapeutics; type: cell-based
Description: 2 million Y79 retinoblastoma cells were infected with 50 MOIs of VCN-01. […] Etoposide is topoisomerase 2 inhibitor.
In all experiments, 6-well culture plates containing 2×10^6 cells were used. […] The experiments were controlled by adding culture medium instead of the second treatment. […] The analyses were expanded to other chemotherapeutic agents including hydroxyurea ([…]), etoposide (2 μM), irinotecan (10 μM) or SN-38 (1 μM).
Near-infrared labeled secondary antibodies (Odyssey CLx, LI-COR Inc. Bad Homburg, Germany) were used for detection.

[3] = test system: E2F-1 and cyclin E1; assay: Immunoblot of E2F-1 and cyclin E1 in neuroblastoma and Ewing sarcoma cells; type: cell-based; conditions: in vitro, up to 48 h with topotecan (FIG. 24C)
[4] = test system: RBT-7 intracerebral tumors; assay: Antitumor activity in CNS-disseminated retinoblastoma; type: in vivo, mouse; conditions: control 22 days; P of combination vs control 0.0004, topotecan 0.0072, standard of care 0.0040, VCN-01 0.0372; animals dying of toxicity excluded (FIG. 22C)
Excerpt: Antitumor activity in CNS-disseminated retinoblastoma. A model of retinoblastoma dissemination was established in the leptomeninges of the CNS. Anesthetized mice were restrained in a stereotactic apparatus (Stoelting, Wood Dale, IL, USA). Using a mouse brain atlas (Paxinos and Franklin, “The mouse brain in stereotaxic coordinates,” San Diego: Academic Press; 2001), the coordinates of the fourth ventricle were located and the surface of the skull was drilled. Then, […] (RBT-7) in 10 µL matrigel was injected with a dull 22G needle attached to a 50 µL syringe (Hamilton, Bonaduz, Switzerland). One week later, treatments were started with VCN-01 (3×10^9 vp in 20 µL vehicle, intraventricular, day 8), topotecan (0.6 mg/kg, i.p., days 8-12), SoC chemotherapy ([…], 40 mg/kg, i.p., day 8, and etoposide, 6 mg/kg, i.p., days 8-10) or the combination of VCN-01 and chemotherapies. The control group received the vehicle of VCN-01 (intraventricular). Animals achieved experimental endpoints upon deterioration of condition or 20% weight loss. Brains collected at endpoint were embedded in paraffin and stained with hematoxylin and eosin (H&E), human nuclei (MAB4383, 1:200, Millipore), viral protein E1A (ab33183, 1:200, Abcam) and CD45 (leukocyte common antigen; 70257, 1:200, Cell Signaling).

[5] = test system: recombinant hyaluronidase PH20 (SPAM1 gene); assay: mRNA expression of recombinant hyaluronidase PH20 (SPAM1) in s.c. retinoblastomas; type: in vivo, mouse; conditions: 5 days, compared to […] (FIG. 18H)
Description: To quantify the recombinant PH20 hyaluronidase gene (SPAM1) in cultures and mouse tissues, the SYBR primer: Forward 5′-TACACACTCCTTGCTCCTGG-3′ (SEQ ID NO: 19), Reverse: 5′-CTTAGTCTCACAGAGGCCAC-3′ (SEQ ID NO: 20) (Bazan-Peregrino et al., “VCN-01 disrupts pancreatic cancer stroma and exerts antitumor effects,” Journal for ImmunoTherapy of Cancer 2021; 9(11):e003254) was used.
To establish s.c. tumors, 10^6 retinoblastoma cells suspended in 25 µL matrigel (Corning, Glendale, AZ, USA) were injected in athymic nude mice. Upon xenograft engraftment (tumor volumes ranging 100-200 mm^3), treatments were started. Mice received VCN-01 (3×10^9 vp in 20 µL vehicle, single intratumoral injection at day 1), alone or combined with one cycle of topotecan (0.6 mg/kg, intraperitoneal -i.p.-, daily at days 1-5), […] (40 mg/kg, i.p, one single dose at day 1), or hydroxyurea (200 mg/kg, i.p., daily at days 1-5). A group of mice received one intratumoral injection of the vehicle of VCN-01 (20 mM pH 8.0 tris buffer, 25 mM NaCl and 2.5% glycerol). Mice were sacrificed at 5 and 15 days after VCN-01 inoculation, the tumors were dissected and tumor homogenates were prepared by adding 10 μL of water per mg of tissue and homogenizing with a Bullet Blender turbine Storm 24 (Quasar instruments, Colorado Springs, CO, USA). In tumor homogenates, genome copies of VCN-01 were quantified. […]

[6] = test system: RBT-7 intracerebral tumors; assay: Brain analyses at end of treatment, CNS-disseminated retinoblastoma; type: in vivo, mouse; conditions: end of treatment (FIG. 22G)
[7] = test system: Y79 cells; assay: Viral production assay; type: cell-based; conditions: Y79 pre-infected with 500 MOI; topotecan 2 μM (FIG. 18F)
Description: Viral production assay. Y79 cells were infected with a concentration of 500 multiplicity of infection (MOI; i.e., transducing units of virus per cell), which was sufficient to achieve 80% to 100% infectivity. After 4 h, the cells were washed three times with PBS, fresh medium was added, and the cells were incubated with or without topotecan (2 μM). At time points 30, 48 and 72 h post-infection, the cell pellets were collected and exposed to three rounds of freeze-thaw lysis. Viral titers were determined in the pellets in triplicate, following an anti-hexon staining-based method in HEK293 cells (Cascallo et al., 2007).

[8] = test system: Y79 retinoblastoma cells; assay: cells; type: cell-based

Q: What does the source list for `CC[C@@]1(O)C(=O)OCc2c1cc1n(c2=O)Cc2cc3c(CN(C)C)c(O)ccc3nc2-1` [Topotecan, topotecan]?
A: antiproliferative activity, topotecan first ([1]; cells pre-exposed to topotecan before VCN-01 infection (FIG. 13D)): sensitive to the antiproliferative activity of the drug; antiproliferative activity, VCN-01 first ([1]; previous VCN-01 infection (FIG. 13D)): partially abolished the activity of the drug; expression of VCN-01 proteins (E1a) ([2]; VCN-01 50 MOI, drug added at 24 h, lysis at 48 h (FIG. 7)): similarly to topotecan; expression of E2F-1 and E1A ([2]; Y79 cells pre-exposed to VCN-01 (FIG. 13H)): increased the expression of E2F-1 and E1A similarly to topotecan; expression of E2F-1 and cyclin E1 [3]: overexpression of E2F-1 and cyclin E1; median survival [4]: 28 days; expression of recombinant hyaluronidase [5]: higher expression of recombinant hyaluronidase; expression of CDKN1A in brain homogenates [6]: highest expression of CDKN1A; viral production [7]: did not increase viral production; IC50 ([8]; read-out: IC50, Topotecan single agent): 30.3 nM; IC50 ([8]; read-out: IC50, Topotecan with VCN-01 (10 MOI)): 893 nM
